Patent publication US20230322743A1, “NOVEL […] DERIVATIVES HAVING PRODRUG PROPERTIES” (Compass Pathfinder Limited, priority 2020, published 2023)
Values after ≈ are worked out from the molar mass of the structure shown.

Tests used:
[1] = Kinetic turbidimetric solubility assay; settings: for solubility at 5 min: phosphate buffered saline, pH 7.4, aqueous buffer, kinetic from dmso stock; for Solubility: Example 12, 0.01 M phosphate buffered saline pH 7.4, 2% DMSO, room temperature, maximum concentration tested 200 μM, test compounds as hemioxalate salts
Micro shake flask LogD = settings: for Mean LogD: Octanol:PBS 1:9 at pH 7.4, 10 μM, six replicates
Protocol: 6 replicates of each test compound were incubated at 10 μM in a 1:9 ratio of Octanol:PBS at pH 7.4. Following a two hour incubation at room temperature shaking at 600 rpm, the incubation plate was centrifuged for 15 minutes to separate the layers and then two aliquots were removed from the PBS layer. The first was left neat and the second was diluted 10-fold to give dilute samples. Internal standards were added to both the calibration curve and the PBS incubation samples for analysis on LC MS/MS. […] 5,6-MDAI-tryptophanamide and 3,4-MDA-tryptophanamide were prepared as hemioxalate salts.
LogD was measured as the concentration in the PBS layer against the generated calibration curve relative to the starting concentration of 10 μM. All 6 replicates of the neat samples were averaged to give one value for each, with the same calculation performed for the dilute sample values.
6 replicates of each test compound were incubated at 10 μM in a 1:9 ratio of Octanol:PBS at pH 7.4. Following a two hour incubation at room temperature shaking at 600 rpm, the incubation plate was centrifuged for 15 minutes to separate the layers and then two aliquots were removed from the PBS layer. The first was left neat and the second was diluted 10-fold to give dilute samples.

locomotor activity = assay: Locomotor activity in rats following oral dosing (EthoVision tracking); type: in vivo, Male Sprague Dawley rats; settings: rat, 5 mg/kg
rats = settings: previously shown, Baumann et al. 2008; cited from earlier work
[2] = tested on: behavioural measures of serotonin syndrome; assay: Behavioural observations for measures of serotonin syndrome in rats; settings: rat, PO, 5 mg/kg; scored post-treatment up to 2 hours
[3] = tested on: monoamine neurotransmitter release; assay: Microdialysis of nucleus accumbens with HPLC analysis of dopamine, noradrenaline and serotonin; type: in vivo, Male Sprague Dawley rats; settings: rat, PO, 5 mg/kg
[4] = Example 13, glycinamides as hemioxalate salts
[5] = Example 12, test compounds as hemioxalate salts

| Compound | solubility at 5 min [1] | Mean LogD (Micro shake flask LogD; [4]) | Observations (approximate timecourse), behaviours significantly increased vs vehicle [2] | Mean LogD (Micro shake flask LogD; [5]) | Serotonin levels in nucleus accumbens, compared to the vehicle group ([3]; 2 hour period following dosing) | Magnitude of effect on serotonin levels compared to MDMA ([3]; nucleus accumbens) | Solubility [1] | further results |
| --- | --- | --- | --- | --- | --- | --- | --- | --- |
| COC(=O)C1=C(C)NC(C)=C(C(=O)OCCN(C)Cc2ccccc2)C1c1cccc([N+](=O)[O-])c1 (centres unmarked) [Nicardipine, reference compound] | 22.1 µM (≈ 10.6 µg/mL) | – | – | – | – | – | – | – |
| CC(Cc1ccc2c(c1)OCO2)NC(=O)CN (centres unmarked) [3,4-MDA-glycinamide] | – | 1.08 | – | – | – | – | – | LogD compared with that of MDMA (Micro shake flask LogD; Example 13, Octanol:PBS at pH 7.4): slightly greater than that of MDMA |
| CNC(C)Cc1ccc2c(c1)OCO2 (centres unmarked) [MDMA, 3,4-Methylenedioxy-N-methylamphetamine] | ≥ 200 µM | – | Flattened posture (~0-40 mins) and hind limb | – | – | – | – | logD at 2 h (Micro shake flask LogD; pH 7.4): 0.57; Effect on locomotor activity (significant change in total distance travelled vs vehicle) (locomotor activity; 0-60 mins): ↑↑↑ (↑↑↑, p < 0.001); Effect on locomotor activity (significant change in total distance travelled vs vehicle) (locomotor activity; 0-120 mins): ↑↑↑ (↑↑↑, p < 0.001); Effect on locomotor activity (significant change in total distance travelled vs vehicle) (locomotor activity; 60-120 mins): ↑↑↑ (↑↑↑, p < 0.001); Behavioural measures of serotonin syndrome (rats): induce; Locomotion (rats): hyperlocomotion; Monoamine neurotransmitter levels (rats): elevations |
| N[C@@H](Cc1c[nH]c2ccccc12)C(=O)NC1Cc2cc3c(cc2C1)OCO3 [5,6-MDAI-tryptophanamide] | – | – | None | 2.31 | significant increases | smaller in magnitude compared to MDMA | >200 µM | – |
| CC(Cc1ccc2c(c1)OCO2)NC(=O)[C@@H](N)Cc1c[nH]c2ccccc12 (some centres unmarked) [3,4-MDA-tryptophanamide] | – | – | None | 1.97 | significant increases | smaller in magnitude compared to MDMA | >200 µM | Dopamine levels in nucleus accumbens, compared to the vehicle group ([3]; 2 hour period following dosing): significant increases; Noradrenaline levels in nucleus accumbens, compared to the vehicle group ([3]; 2 hour period following dosing): significant increases; Magnitude of effects on dopamine and noradrenaline levels compared to MDMA ([3]; nucleus accumbens): smaller in magnitude compared to MDMA |
| CC(Cc1ccc2c(c1)OCO2)N(C)C(=O)CN (centres unmarked) [3,4-MDMA-glycinamide] | – | 0.66 | – | – | – | – | – | – |
